PubChem BioAssay AID463204 (Broad Institute, 2010)
Activity calls are given as the source filed them.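 Rule for the calls: active = AC50 no more than ten times the top concentration tested, that is within one log above it; inconclusive = flat curve fit with activity between 30% and 70%, or invalid poor fit; inactive = AC50 beyond ten times the top tested dose.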

Tested on: S. cerevisiae Mot1-301 ts growth rescue, BacTiter-Glo ATP luminescence
Assay: growth rescue of Mot1-301 ts yeast, confirmation, SUMOylation pathway inhibitor project, whole organism, S. cerevisiae, Mot1-301 ts mutant, luminescence, dose retest (AID 463204);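 note: growth at restrictive 38.5 degrees C of Mot1-301 OY566 strain; actives raise luminescence by restoring growth of the ts mutant at high temperature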

Row | SMILES | AC50
1 | Cc1ccc(N(CC(=O)NCCc2ccc(Cl)cc2)S(=O)(=O)c2c(C)noc2C)cc1 | > 42 µM (inactive)
2 | COc1ccccc1CNc1nc(SC)ncc1CO | > 42 µM (inactive)
3 | Brc1ccc(-c2cn3cccnc3n2)cc1 | > 42 µM (inactive)
4 | CCOc1cc(C(=S)N2CCOCC2)ccc1OC(=O)c1ccc(C)cc1 | > 42 µM (inactive)
5 | O=c1cnc2ccccc2n1Cc1ccccc1C(F)(F)F | > 42 µM (inactive)
6 | COc1ccccc1CCNC(=O)/C(=C/c1cccnc1)NC(=O)c1ccccc1 | > 42 µM (inactive)
7 | CC(C)CCn1c(=O)c2ccccc2c2ccccc2c1=O | > 42 µM (inactive)
8 | Cc1cc(-c2ccc(C(C)C)c(S(=O)(=O)N3CC(=O)Nc4ccccc43)c2)on1 | > 42 µM (inactive)
9 | COc1ccc(N2C(=O)CSC23CCCCC3)cc1 | > 42 µM (inactive)
10 | COC(=O)/C=C\C(=O)Nc1cccc([N+](=O)[O-])c1 | 2.95 µM
11 | CCC(CC)C(=O)N1CCCC(c2nc(-c3cccs3)no2)C1 (centres undefined) | > 42 µM (inactive)
12 | Cc1occc1-c1nnc(SCC(=O)N2CCN(c3ccccc3)CC2)n1C | > 42 µM (inactive)
13 | COc1ccc2c(c1)[C@H]1[C@H](CO2)[C@H](c2ccccc2)[C@]2(C)C(=O)Nc3ccc(F)cc3C(=O)N12 | 5.38 µM
14 | CC(=O)N1CCc2cc(S(=O)(=O)NCCC3=CCCCC3)ccc21 | > 42 µM (inactive)
15 | CCOc1ccc(-c2nnc(SCC(=O)N3CCCC3)o2)cc1 | > 42 µM (inactive)
16 | COc1ccc(C2CC(c3cccs3)=NN2C(=O)c2ccccc2)cc1OC (centres undefined) | > 42 µM (inactive)
17 | Cc1ccc(F)cc1NS(=O)(=O)c1ccc(Cl)s1 | 22.2 µM
18 | CC(C)=CC(=O)N1CCCC(N2CCN(c3ccc(F)cc3)CC2)C1 (centres undefined) | > 42 µM (inactive)
19 | CCCc1cc(=O)oc2c3c(c4c(c12)OC(C)(C)C=C4)OC(C)C(C)C3O (centres undefined) | > 42 µM (inactive)
20 | CCn1c(SCC(=O)NC2CCCCC2)nnc1C(C)NC(=O)c1ccccc1F (centres undefined) | > 42 µM (inactive)
21 | N#CC1=C(SCC(N)=O)NC(=O)CC1c1ccccc1Cl (centres undefined) | 28.4 µM
22 | Cc1ccc(NS(=O)(=O)c2csc(C(N)=O)c2)cc1C | > 42 µM (inactive)
23 | CSc1ccc(Cl)c(C(=O)Nc2ccc(N3CCOCC3)cc2)c1 | > 42 µM (inactive)
24 | Cc1nc(CSc2nnc3scc(-c4ccccc4)n23)cs1 | > 42 µM (inactive)
25 | CCCCCCC(C)n1[nH]c(=O)c2c(C)cc(=O)[nH]c21 (centres undefined) | > 42 µM (inactive)

Row | SMILES | AC50
26 | O=C(CSc1nnc(NC(=O)CN2CCOCC2)s1)Nc1ccccc1 | > 42 µM (inactive)
27 | Cc1ccc(S(=O)(=O)NCc2ccc(C(=O)N3CCN(c4ccccn4)CC3)cc2)cc1 | > 42 µM (inactive)
28 | COc1cc2c(=O)n(CCC(=O)NCC3CCCO3)c(=O)n(CC(=O)Nc3ccccc3C)c2cc1OC (centres undefined) | > 42 µM (inactive)
29 | CC(=O)Nc1cccc(NC(=S)Nc2ccc(F)cc2F)c1 | > 42 µM (inactive)
30 | Cc1ccc2c(c1)N(CC(=O)NCC1CCCO1)C(=O)C(C)O2 (centres undefined) | > 42 µM (inactive)
31 | COc1ccc2c(c1)c(CC(=O)OCC(N)=O)c(C)n2C(=O)c1ccc(Cl)cc1 | > 42 µM (inactive)
32 | CN=C1SC(CC(=O)Nc2sc3c(c2C#N)CCCC3)C(=O)N1C (centres undefined) | > 42 µM (inactive)
33 | CCOC(=O)c1cnc2c(C)c(Cl)ccc2c1N1CCOCC1 | > 42 µM (inactive)
34 | Cc1ccc(/C=C/C(=O)OCC(=O)N(CC(C)C)c2c(N)n(Cc3ccccc3)c(=O)[nH]c2=O)o1 | > 21 µM (inactive)
35 | COc1cc(C(=O)OCC(=O)NCc2ccccc2)cc(NC(=O)c2ccco2)c1OC | > 42 µM (inactive)
36 | COc1cc(OC)c(C(=O)N2CCN(c3ccccn3)CC2)cc1OC | > 42 µM (inactive)
37 | COc1ccccc1NC(=O)c1ccc(-n2ccnc2)c([N+](=O)[O-])c1 | > 42 µM (inactive)
38 | COc1ccc(NC(=O)CN2C(=O)c3ccccc3S2(=O)=O)cc1OC | > 42 µM (inactive)
39 | CCOC(=O)C1C(=O)NC(SCC(=O)Nc2nccs2)=C(C#N)C1c1ccccc1OCC (centres undefined) | > 42 µM (inactive)
40 | Cc1ccc(-n2c(-c3ccco3)nc3c(cnn3-c3ccc(C)cc3)c2=O)cc1 | > 42 µM (inactive)
41 | c1ccc2[nH]c(CSc3nccs3)nc2c1 | > 42 µM (inactive)
42 | CCOC(=O)c1c(/N=C/C2C(=O)CCCC2=O)sc2c1CCCC2 | > 42 µM (inactive)
43 | CCN(CC)c1ccc(N=Cc2c(O)n(Cc3ccccc3)c(=O)[nH]c2=O)cc1 | > 42 µM (inactive)
44 | NS(=O)(=O)c1cccc(NC(=O)c2cccnc2Oc2ccccc2)c1 | > 42 µM (inactive)
45 | O=C(O)c1ccc(/C=N/NC(=O)c2cc(-c3ccc4c5c(cccc35)CC4)n[nH]2)cc1 | > 42 µM (inactive)
46 | O=C(CSc1nc(O)cc(=O)n1-c1ccccc1)NC1CCCCC1 | > 42 µM (inactive)
47 | O=C(CS(=O)c1ccc(C(F)(F)F)cc1[N+](=O)[O-])Oc1ccc(Cl)cc1 (centres undefined) | 1.47 µM
48 | Cc1nnc(SCC(=O)NCc2ccccc2Cl)[nH]c1=O | > 42 µM (inactive)
49 | COCCCNS(=O)(=O)c1ccc(Oc2ncc(C(F)(F)F)cc2Cl)cc1 | > 42 µM (inactive)
50 | CCCCNS(=O)(=O)c1ccc2c(c1)oc(=O)n2CC(=O)OCC | > 42 µM (inactive)

Row | SMILES | AC50
51 | C=CCSC1=C(C#N)C(c2ccc(C(C)C)cc2)CC(=O)N1 (centres undefined) | 8.36 µM
52 | COC(=O)CCC(=O)OC1(C)C(=O)C2=CN(CCc3c[nH]c4ccccc34)C(c3ccc(OC)cc3)=CC2=C(Br)C1=O (centres undefined) | > 42 µM (inactive)
53 | C=CCOC(=O)C(C#N)c1nc2ccccc2nc1N1CCN(Cc2ccccc2)CC1 (centres undefined) | > 42 µM (inactive)
54 | Cc1ccc(/C=C2\SC(N3CCCC3)=NC2=O)cc1 | > 42 µM (inactive)
55 | COc1cccc(C2CC(c3cccc(NS(C)(=O)=O)c3)=NN2C(=O)c2ccccc2)c1OC (centres undefined) | > 42 µM (inactive)
56 | CC(C)Cc1nc(N2CCOCC2)c(C#N)c2c1CCC2 | > 42 µM (inactive)
57 | COC(=O)c1c(C)cc(O)c(C=O)c1O | 17.7 µM
58 | O=C(Nc1ccc(F)cc1)c1cccnn1 | > 42 µM (inactive)
59 | O=C(C[n+]1ccc(C(=O)N/N=C/c2ccc(Cl)cc2Cl)cc1)c1ccccc1 | > 42 µM (inactive)
60 | O=C(N/N=C/C(Br)=C/c1ccccc1)c1n[nH]c2c1CCC2 | 6.68 µM
61 | O=C(CCNS(=O)(=O)c1cccc2nsnc12)NCCC1=CCCCC1 | > 42 µM (inactive)
62 | CCCCC(=O)Nc1cc(OC)c(NC(=O)C2CCCCC2)cc1OC | > 42 µM (inactive)
63 | CC1c2cc3c(cc2CCN1CC(=O)Nc1ccccc1)OCCCO3 (centres undefined) | > 42 µM (inactive)
64 | Cc1c(NC(=O)CN2C(=O)NC(C)(c3ccc(OC(F)F)cc3)C2=O)c(=O)n(-c2ccccc2)n1C (centres undefined) | > 42 µM (inactive)
65 | Cc1c(C(=O)NC(=S)Nc2ccccc2N2CCCC2)cccc1[N+](=O)[O-] | > 42 µM (inactive)
66 | COc1ccc(OC)c(NC(=O)CNC(=O)Cn2ccc3ccccc3c2=O)c1 | > 42 µM (inactive)
67 | O=C(Nc1ccccc1)N1CCN(CCc2ccccc2)CC1 | > 42 µM (inactive)
68 | O=C(C1CCCN(S(=O)(=O)c2cnc[nH]2)C1)N1CCN(c2ccc(Cl)cc2)CC1 (centres undefined) | > 42 µM (inactive)
69 | O=c1c2ccccc2nc(SCc2ccc([N+](=O)[O-])cc2)n1CCCO | > 42 µM (inactive)
70 | O=C(NCc1cccnc1)Nc1ccccc1 | > 42 µM (inactive)
71 | CC(C)NC(=O)COc1ccc(S(=O)(=O)N(C)Cc2ccccc2)cc1 | > 42 µM (inactive)
72 | c1ccc2cc(C3CCCCC3)ncc2c1 | 14 µM
73 | O=C1NC(=O)C(=Cc2ccc(N3CCOCC3)cc2)C(=O)N1 | > 42 µM (inactive)
74 | CCCc1nnc(NC(=O)c2cn(CC)c3cc(N4CCN(C)CC4)c(F)cc3c2=O)s1 | > 21 µM (inactive)
75 | O=C(CSCc1ccc(Cl)cc1)N1CCCCC1 | > 42 µM (inactive)

Row | SMILES | AC50
76 | C[C@@]12C(=O)Nc3cc(F)ccc3C(=O)N1[C@H]1c3ccccc3OC[C@@H]1[C@@H]2c1ccccc1 | 5.7 µM
77 | O=C1NC2(CCCCC2)NN1c1ccccc1 | > 42 µM (inactive)
78 | Cc1ccc(C)c(OCCCC(=O)N2CCOCC2)c1 | > 42 µM (inactive)
79 | CCOCCCNC(=O)C(c1ccc(OC)cc1)N(Cc1cccs1)C(=O)c1ccccn1 (centres undefined) | > 42 µM (inactive)
80 | Cc1cc(C)n(CCCNC(=O)CN(C)S(=O)(=O)c2ccc(Cl)cc2)n1 | > 42 µM (inactive)
81 | C/C(=N\N1CCN(Cc2ccccc2Cl)CC1)c1ccc([N+](=O)[O-])cc1 | > 42 µM (inactive)
82 | COc1cc(C(=O)COC(=O)c2cc([N+](=O)[O-])ccc2N2CCOCC2)ccc1OC(F)F | 29.4 µM
83 | COc1ccccc1-c1nnc(SCC(=O)NC2CCS(=O)(=O)C2)n1N (centres undefined) | > 42 µM (inactive)
84 | COc1ccc(CCN(C)CCCC(C#N)(c2ccc(OC)c(OC)c2)C(C)C)cc1OC (centres undefined) | > 42 µM (inactive)
85 | O=C(Nc1cnn(Cc2ccc(Cl)cc2)c1)c1ccc([N+](=O)[O-])cc1 | > 42 µM (inactive)
86 | C[C@]12CC[C@H]3C(=CCc4cc(O)ccc43)[C@@H]1CCC2=O | > 42 µM (inactive)
87 | C/C(CC(=O)Nc1cccc(Cl)c1Cl)=N\NC(=O)c1ccccc1C | > 42 µM (inactive)
88 | N#CCCN(C(=O)COC(=O)c1ccc(S(=O)(=O)Nc2ccccc2)cc1)c1ccccc1 | > 42 µM (inactive)
89 | Cc1cc(C)cc(N2C(=O)CC(Sc3ncn[nH]3)C2=O)c1 (centres undefined) | 1.92 µM
90 | Cc1cc(C)n(-c2nc(-c3cccc(Cl)c3)cs2)n1 | > 42 µM (inactive)
91 | CCOC(=O)C1CCN(Cc2ccc(OCc3ccccc3)cc2)CC1 | > 42 µM (inactive)
92 | O=C(Cn1sc2ccccc2c1=O)NC12CC3CC(CC(C3)C1)C2 | 20.7 µM
93 | Oc1cccc(/C=N/N2CCN(c3ccccn3)CC2)c1 | > 21 µM (inactive)
94 | CC(NC(=O)CCc1nnc(-c2ccc(-c3ccccc3)cc2)o1)c1nc2ccccc2[nH]1 (centres undefined) | > 42 µM (inactive)
95 | CC[C@@H]1C/C=C\Cc2ccccc2[C@H](C(=O)C[C@@H](O)CC(C)=O)OC1=O | 8.7 µM
96 | COc1cccc(/C=N/n2cnc3ccccc32)c1OC | > 42 µM (inactive)
97 | CN1CCCCC1=NCCCn1cnc2c1c(=O)n(C)c(=O)n2C | > 42 µM (inactive)
98 | O=C(NC(=S)Nc1ccccc1N1CCCC1)c1ccc([N+](=O)[O-])cc1 | > 42 µM (inactive)
99 | CCOC(=O)C1CC(c2ccccc2)=NNC1=O (centres undefined) | > 42 µM (inactive)
